Test results published in patent US4220644A, “7-Acylamino-3-(substituted tetrazolyl thiomethyl) cephalosporins” (SmithKline Corporation, priority 1976, dated 1980).
≈ marks a conversion by molar mass, not a printed value. Where two headings read alike, the source gives them in different places.

How the values were obtained:
Kleb. pneumo. SK 4200 = experiment: MIC in vitro (Table 1), Kleb. pneumo. SK 4200; format: cell-based
From the text: (§1) Compound names corresponding to numbers are given in the experimental section. For comparative purposes, data for cephamandole, which is 7-mandelamido-3-(1-methyltetrazol-5-ylthiomethyl)-3-cephem-4-carboxylic acid, is also given in Tables 1 and 2.

Strep. Faecalis HH 34358 = experiment: MIC in vitro (Table 1), Strep. Faecalis HH 34358; format: cell-based; details: Enterococcus faecalis
From the text: as §1

Salmonella ATCC 12176 = experiment: MIC in vitro (Table 1), Salmonella ATCC 12176; format: cell-based
From the text: as §1, with “The compounds of Formula I have antibacterial activity against both Gram-positive and Gram-negative organisms. […] Compound” for “Compound”

Shigella HH 117 = experiment: MIC in vitro (Table 1), Shigella HH 117; format: cell-based
From the text: as §1, with “The compounds of Formula I have antibacterial activity against both Gram-positive and Gram-negative organisms. […] Compound” for “Compound”

Pseudo. sp. HH 63 = experiment: MIC in vitro (Table 1), Pseudo. sp. HH 63; format: cell-based
From the text: as §1, with “The compounds of Formula I have antibacterial activity against both Gram-positive and Gram-negative organisms. […] Compound” for “Compound”

S. villaluz = experiment: MIC in vitro (Table 1), S. villaluz; format: cell-based
From the text: as §1, with “The compounds of Formula I have antibacterial activity against both Gram-positive and Gram-negative organisms. […] Compound” for “Compound”

Serra. Marc. ATCC 13880 = experiment: MIC in vitro (Table 1), Serra. Marc. ATCC 13880; format: cell-based
From the text: as §1

E. coli SK 12140 = experiment: MIC in vitro (Table 1), E. coli SK 12140; format: cell-based; details: Escherichia coli, SK12140, in vitro
From the text: as §1

E. coli 12140 = experiment: In vivo mouse protection (Table 2), E. coli 12140
From the text: as §1

[1] = system: Entero. aerog. ATCC 13048; experiment: MIC in vitro (Table 1), Entero. aerog. ATCC 13048; format: cell-based
From the text: as §1

Kleb. pneumo. SK 1200 = experiment: MIC in vitro (Table 1), Kleb. pneumo. SK 1200; format: cell-based
From the text: as §1

Kleb. pneumo. 4200 = experiment: In vivo mouse protection (Table 2), Kleb. pneumo. 4200
From the text: as §1

S. aureus HH 127 = experiment: MIC in vitro (Table 1), S. aureus HH 127; format: cell-based; details: Staphylococcus aureus
From the text: as §1

E. coli HH 33779 = experiment: MIC in vitro (Table 1), E. coli HH 33779; format: cell-based; details: Escherichia coli
From the text: as §1

S. aureus SK 23390 = experiment: MIC in vitro (Table 1), S. aureus SK 23390; format: cell-based; details: Staphylococcus aureus
From the text: as §1

Entero. cloacae HH 31254 = experiment: MIC in vitro (Table 1), Entero. cloacae HH 31254; format: cell-based; details: Enterobacter cloacae
From the text: as §1

Proteus morgani 179 = experiment: MIC in vitro (Table 1), Proteus morgani 179; format: cell-based
From the text: as §1

[2] = in vitro, Kleb. pneumo. SK 4200, read-out: MIC
[3] = in vitro, Strep. Faecalis HH 34358, read-out: MIC
[4] = Salmonella, ATCC12176, in vitro, read-out: MIC
[5] = Shigella, HH117, in vitro, read-out: MIC
[6] = in vitro, Pseudo. sp. HH 63, read-out: MIC
[7] = in vitro, Serra. Marc. ATCC 13880, read-out: MIC
[8] = Escherichia coli, 12140, po, E. coli 12140, p.o.
[9] = Escherichia coli, 12140, sc, E. coli 12140, s.c.
[10] = in vitro, Entero. aerog. ATCC 13048, read-out: MIC
[11] = HH127, in vitro, S. aureus HH 127, read-out: MIC
[12] = HH33779, in vitro, E. coli HH 33779, read-out: MIC
[13] = HH31254, in vitro, Entero. cloacae HH 31254, read-out: MIC
[14] = SK23390, in vitro, S. aureus SK 23390, read-out: MIC

Structure (SMILES) | MIC (Kleb. pneumo. SK 4200; [2]) [µg/mL] | MIC (Strep. Faecalis HH 34358; [3]) [µg/mL] | MIC (Salmonella ATCC 12176; [4]) [µg/mL] | MIC (Shigella HH 117; [5]) [µg/mL] | MIC (Pseudo. sp. HH 63; [6]) [µg/mL] | MIC (S. villaluz; read-out: MIC) [µg/mL] | MIC (Serra. Marc. ATCC 13880; [7]) [µg/mL] | ED50 (E. coli 12140; [8]) [mg/kg] | ED50 (E. coli 12140; [9]) [mg/kg] | MIC [1, 10] [µg/mL] | MIC (Kleb. pneumo. SK 1200; read-out: MIC) [µg/mL] | ED50 (Kleb. pneumo. 4200; po, Kleb. pneumo. 4200, p.o.) [mg/kg] | ED50 (Kleb. pneumo. 4200; sc, Kleb. pneumo. 4200, s.c.) [mg/kg] | MIC (S. aureus HH 127; [11]) [µg/mL] | MIC (E. coli HH 33779; [12]) [µg/mL] | MIC (S. aureus SK 23390; SK23390) [µg/mL] | MIC (Entero. cloacae HH 31254; [13]) [µg/mL] | MIC (E. coli SK 12140) [µg/mL] | MIC (Proteus morgani 179; read-out: MIC) [µg/mL] | MIC (S. aureus SK 23390; [14]) [µg/mL] | other results
CN(C)C(=O)Cn1nnnc1SCC1=C(C(=O)O)N2C(=O)C(NC(=O)[C@H](O)c3ccccc3)C2SC1 (stereo partly drawn) [IV, 7-D-Mandelamido-3-(1-N,N-dimethylcarbamoylmethyltetrazol-5-ylthiomethyl)-3-cephem-4-carboxylic acid] | 3.1 (≈ 5.81 µM) | 25 (≈ 46.9 µM) | 3.1 (≈ 5.81 µM) | 0.8 (≈ 1.5 µM) | > 200 | 50 (≈ 93.7 µM) | 100 (≈ 187 µM) | 168 | 2.5 | 6.3 (≈ 11.8 µM) | 1.6 (≈ 3 µM) | 168 | 7.5 | 1.6 (≈ 3 µM) | 6.3 (≈ 11.8 µM) | 0.8 (≈ 1.5 µM) | 1.6 (≈ 3 µM) |  |  |  | MIC (E. coli SK 12140; read-out: MIC): 3.1 µg/mL (≈ 5.81 µM)
NC(=O)CCCn1nnnc1SCC1=C(C(=O)O)N2C(=O)C(NC(=O)[C@H](O)c3ccccc3)[C@H]2SC1 (stereo partly drawn) [XI, 7-D-Mandelamido-3-[1-(3-carbamoylpropyl)tetrazol-5-ylthiomethyl]-3-cephem-4-carboxylic acid] | 0.8 (≈ 1.5 µM) | 50 (≈ 93.7 µM) | 0.8 (≈ 1.5 µM) | 0.4 (≈ 0.75 µM) | > 200 | 50 (≈ 93.7 µM) |  | > 50 | 1.56 |  | 0.8 (≈ 1.5 µM) | 25 | 0.37 |  | 3.1 (≈ 5.81 µM) |  |  | 0.4 (≈ 0.75 µM) | 0.8 (≈ 1.5 µM) | 3.1 (≈ 5.81 µM) | MIC (Serra. Marc. ATCC 13880): 25 µg/mL (≈ 46.9 µM); MIC [1]: 3.1 µg/mL (≈ 5.81 µM); MIC (S. aureus HH 127; HH127): 3.1 µg/mL (≈ 5.81 µM); MIC (Entero. cloacae HH 31254; HH31254): 3.1 µg/mL (≈ 5.81 µM)
O=C(O)Cn1nnnc1SCC1=C(C(=O)O)N2C(=O)C(NC(=O)[C@H](O)c3ccccc3)[C@H]2SC1 (stereo partly drawn) [I, 7-D-Mandelamido-3-(1-carboxymethyltetrazol-5-ylthiomethyl)-3-cephem-4-carboxylic acid] | 0.8 (≈ 1.58 µM) | 100 (≈ 197 µM) | 1.6 (≈ 3.16 µM) | 1.6 (≈ 3.16 µM) | > 200 |  | 100 (≈ 197 µM) | 50 | 1.56 | 6.3 (≈ 12.4 µM) | 0.8 (≈ 1.58 µM) | 25 |  |  | 6.3 (≈ 12.4 µM) | 1.6 (≈ 3.16 µM) | 0.8 (≈ 1.58 µM) | 1.6 (≈ 3.16 µM) |  | 3.1 (≈ 6.12 µM) | MIC (Kleb. pneumo. SK 4200): 1.6 µg/mL (≈ 3.16 µM); MIC (Salmonella ATCC 12176; in vitro): 0.8 µg/mL (≈ 1.58 µM); MIC (Shigella HH 117; in vitro): 0.8 µg/mL (≈ 1.58 µM); MIC (Serra. Marc. ATCC 13880): 25 µg/mL (≈ 49.4 µM); MIC [1]: 12.5 µg/mL (≈ 24.7 µM); MIC (Kleb. pneumo. SK 1200): 1.6 µg/mL (≈ 3.16 µM); MIC (S. aureus HH 127; HH127): 6.3 µg/mL (≈ 12.4 µM); MIC (Proteus morgani 179): 3.1 µg/mL (≈ 6.12 µM); MIC (E. coli HH 33779; HH33779): 1.6 µg/mL (≈ 3.16 µM)
Cn1nnnc1SCC1=C(C(=O)O)N2C(=O)C(NC(=O)C(O)c3ccccc3)[C@H]2SC1 (some centres unmarked) [cephamandole, 7-mandelamido-3-(1-methyltetrazol-5-ylthiomethyl)-3-cephem-4-carboxylic acid, reference compound] | 1.1 (≈ 2.38 µM) | 2.3 (≈ 4.97 µM) |  |  |  |  | 13 (≈ 28.1 µM) | 28 | < 2 | 2.9 (≈ 6.27 µM) | 0.6 (≈ 1.3 µM) | > 50 | 0.96 | 1 (≈ 2.16 µM) | 2.6 (≈ 5.62 µM) |  | 0.7 (≈ 1.51 µM) |  | 1.3 (≈ 2.81 µM) | 0.6 (≈ 1.3 µM) | MIC (Salmonella ATCC 12176; Salmonella, ATCC12176, in vitro): 0.6 µg/mL (≈ 1.3 µM); MIC (Shigella HH 117; Shigella, HH117, in vitro): 0.2 µg/mL (≈ 0.432 µM); MIC (Pseudo. sp. HH 63): > 200 µg/mL; MIC (S. villaluz): 8 µg/mL (≈ 17.3 µM); MIC (E. coli SK 12140; read-out: MIC): 1.1 µg/mL (≈ 2.38 µM)
NC(=O)CCn1nnnc1SCC1=C(C(=O)O)N2C(=O)C(NC(=O)CSC(F)(F)F)[C@H]2SC1 (some centres unmarked) [XVI, 7-Trifluoromethylmercaptoacetamido-3-[1-(2-carbamoylethyl)tetrazol-5-ylthiomethyl]-3-cephem-4-carboxylic acid] | 0.8 (≈ 1.52 µM) |  | 0.4 (≈ 0.758 µM) | 0.2 (≈ 0.379 µM) | > 200 | 6.3 (≈ 11.9 µM) |  | 25 | 0.78 | 1.6 (≈ 3.03 µM) |  |  | 0.54 | 0.4 (≈ 0.758 µM) | 1.6 (≈ 3.03 µM) | 0.8 (≈ 1.52 µM) | 0.4 (≈ 0.758 µM) | 0.4 (≈ 0.758 µM) | 12.5 (≈ 23.7 µM) |  | MIC (Strep. Faecalis HH 34358): 12.5 µg/mL (≈ 23.7 µM); MIC (Kleb. pneumo. SK 1200): 0.4 µg/mL (≈ 0.758 µM)
